According to patent US12702676B2, “Fosfomycin dosing regimens” (priority 2017, dated 2026):

Experiments:
[1] = tested on: baseline bacterial pathogen in cUTI or AP; experiment: ZEUS Phase 2/3 noninferiority trial, efficacy at TOC in hospitalized adults; type: in vivo, human; conditions: for overall success rates at TOC: m-MITT population, clinical cure plus microbiologic eradication, 6 g ZTI-01 q8h or 4.5 g P-T q8h IV; for overall success rates using unique pathogen strains typed by PFGE: post-hoc analysis
Method: Oral step-down therapy was prohibited (FIG. 4).
A post-hoc analysis using pulsed-field gel electrophoresis (PFGE) was performed to molecularly type all baseline and TOC pathogens (both treatment arms), in order to confirm microbiological eradication/persistence; a total of 20 post-baseline pathogens were identified as unique, unrelated strains compared to baseline.

[2] = ZEUS Phase 2/3 trial, safety (adverse events); conditions: for Any AEs / Any TEAEs / Drug-related SAE / Drug-related TEAEs / SAEs / Serious TEAEs leading to study drug discontinuation / TEAEs leading to study drug discontinuation / TEAEs: Mild / TEAEs: Moderate / TEAEs: Severe: MITT Safety Population (n = 233 ZTI-01, n = 231 P-T); for SAE related to study drug (1 in each treatment group): in vivo
[3] = Bacteremia, m-MITT (N1 19 ZTI-01, 13 P-T)
[4] = CE-TOC (N1 199 ZTI-01, 196 P-T)
[5] = ME-TOC (N1 155 ZTI-01, 145 P-T)
[6] = Original Analysis, ME-TOC (N1 155 ZTI-01, 145 P-T)
[7] = Original Analysis, m-MITT (N1 184 ZTI-01, 178 P-T)
[8] = Post-hoc Analysis Using PFGE Typing, ME-TOC (N1 155 ZTI-01, 145 P-T)
[9] = Post-hoc Analysis Using PFGE Typing, m-MITT (N1 184 ZTI-01, 178 P-T)
[10] = SIRS, m-MITT (N1 62 ZTI-01, 52 P-T)
[11] = m-MITT (N1 184 ZTI-01, 178 P-T)

## C[C@@H]1O[C@@H]1P(=O)(O)O [ZTI-01, fosfomycin]
[1]; [3]
  Clinical Response at TOC: Eradication: 15 (78.9%) n (%)
  Clinical Response at TOC: Indeterminate: 2 (10.5%) n (%)
  Clinical Response at TOC: Persistence: 2 (10.5%) n (%)
  Overall Response at TOC: Eradication: 9 (47.4%) n (%)
  Overall Response at TOC: Indeterminate: 3 (15.8%) n (%)
  Overall Response at TOC: Persistence: 7 (36.8%) n (%)
  Per-patient Microbiological Response at TOC: Eradication: 9 (47.4%) n (%)
  Per-patient Microbiological Response at TOC: Indeterminate: 4 (21.2%) n (%)
  Per-patient Microbiological Response at TOC: Persistence: 6 (31.6%) n (%)
[1]; [4]
  Clinical Response at TOC: Cure: 188 (94.5%) n (%)
  Clinical Response at TOC: Failure: 11 (5.5%) n (%)
[1]; CE-TOC, 95% CI (−3.7, 6.9)
  Clinical Response at TOC: Treatment Difference (ZTI-01 vs P-T): 1.6%
[1]; [5]
  Clinical Response at TOC: Cure: 148 (95.5%) n (%)
  Clinical Response at TOC: Failure: 7 (4.5%) n (%)
[1]; ME-TOC, 95% CI (−3.5, 8.3)
  Clinical Response at TOC: Treatment Difference (ZTI-01 vs P-T): 2.4%
[1]; MITT (N1 233 ZTI-01, 231 P-T)
  Clinical Response at TOC: Cure: 211 (90.6%) n (%)
  Clinical Response at TOC: Failure: 11 (4.7%) n (%)
  Clinical Response at TOC: Indeterminate: 11 (4.7%) n (%)
[1]; MITT, 95% CI (−6.8, 4.4)
  Clinical Response at TOC: Treatment Difference (ZTI-01 vs P-T): −1.2%
[1]; [6]
  Microbiological Response at TOC: Eradication: 109 (70.3%) n (%)
  Microbiological Response at TOC: Persistence: 46 (29.7%) n (%)
[1]; [7]
  Microbiological Response at TOC: Eradication: 121 (65.8%) n (%)
  Microbiological Response at TOC: Indeterminate: 13 (7.1%) n (%)
  Microbiological Response at TOC: Persistence: 50 (27.2%) n (%)
[1]; [8]
  Microbiological Response at TOC: Eradication: 117 (75.5%) n (%)
  Microbiological Response at TOC: Persistence: 38 (24.5%) n (%)
[1]; [9]
  Microbiological Response at TOC: Eradication: 130 (70.7%) n (%)
  Microbiological Response at TOC: Indeterminate: 13 (7.1%) n (%)
  Microbiological Response at TOC: Persistence: 41 (22.3%) n (%)
[1]; [10]
  Clinical Response at TOC: Eradication: 55 (88.7%) n (%)
  Clinical Response at TOC: Indeterminate: 4 (6.5%) n (%)
  Clinical Response at TOC: Persistence: 3 (4.8%) n (%)
  Overall Response at TOC: Eradication: 41 (66.1%) n (%)
  Overall Response at TOC: Indeterminate: 5 (8.1%) n (%)
  Overall Response at TOC: Persistence: 16 (25.8%) n (%)
  Patient Microbiological response at TOC: Eradication: 41 (66.1%) n (%)
  Patient Microbiological response at TOC: Indeterminate: 7 (11.3%) n (%)
  Patient Microbiological response at TOC: Persistence: 14 (22.6%) n (%)
[1]; [11]
  Clinical Response at TOC: Cure: 167 (90.8%) n (%)
  Clinical Response at TOC: Failure: 9 (4.9%) n (%)
  Clinical Response at TOC: Indeterminate: 8 (4.3%) n (%)
[1]
  overall success rates at TOC: 64.7%
[1]; m-MITT, TOC, 95% CI −0.4, 20.8
  difference in overall success rate (ZTI-01 vs P-T): 10.2%
[1]; m-MITT, 95% CI (−7.2, 5.6)
  Clinical Response at TOC: Treatment Difference (ZTI-01 vs P-T): −0.8%
[1]; m-MITT, TOC
  overall success rates using unique pathogen strains typed by PFGE: 69.0%
[1]; post-hoc, 95% CI 1.3, 22.1
  difference in overall success rate using PFGE typing (ZTI-01 vs P-T): 11.7%
[1]; preferred dosing regimen 6 g tid
  effective (patients with AP): 68%
[2]
  Any AEs: 99 (42.5%) n (%)
  Any TEAEs: 98 (42.1%) n (%)
  Drug-related SAE: 1 (0.4%) n (%)
  Drug-related TEAEs: 48 (20.6%) n (%)
  SAEs: 5 (2.1%) n (%)
  Serious TEAEs leading to study drug discontinuation: 0 (0%) n (%)
  TEAEs leading to study drug discontinuation: 7 (3.0%) n (%)
  TEAEs: Mild: 84 (36.1%) n (%)
  TEAEs: Moderate: 35 (15.0%) n (%)
  TEAEs: Severe: 5 (2.1%) n (%)
  SAE related to study drug (1 in each treatment group): hypokalemia
[2]; majority of AEs mild to moderate
  tolerability: generally well tolerated
[2]; safety population (n=464)
  treatment-emergent adverse events (TEAEs) observed, % of patients: 42.1%

## piperacillin/tazobactam [P-T]
[1]; [3]
  Clinical Response at TOC: Eradication: 10 (76.9%) n (%)
  Clinical Response at TOC: Indeterminate: 0 (0%) n (%)
  Clinical Response at TOC: Persistence: 3 (23.1%) n (%)
  Overall Response at TOC: Eradication: 5 (38.5%) n (%)
  Overall Response at TOC: Indeterminate: 0 (0%) n (%)
  Overall Response at TOC: Persistence: 8 (61.5%) n (%)
  Per-patient Microbiological Response at TOC: Eradication: 6 (46.2%) n (%)
  Per-patient Microbiological Response at TOC: Indeterminate: 0 (0%) n (%)
  Per-patient Microbiological Response at TOC: Persistence: 7 (53.8%) n (%)
[1]; [4]
  Clinical Response at TOC: Cure: 182 (92.9%) n (%)
  Clinical Response at TOC: Failure: 14 (7.1%) n (%)
[1]; [5]
  Clinical Response at TOC: Cure: 135 (93.1%) n (%)
  Clinical Response at TOC: Failure: 10 (6.9%) n (%)
[1]; MITT (N1 233 ZTI-01, 231 P-T)
  Clinical Response at TOC: Cure: 212 (91.8%) n (%)
  Clinical Response at TOC: Failure: 16 (6.9%) n (%)
  Clinical Response at TOC: Indeterminate: 3 (1.3%) n (%)
[1]; [6]
  Microbiological Response at TOC: Eradication: 86 (59.3%) n (%)
  Microbiological Response at TOC: Persistence: 59 (40.7%) n (%)
[1]; [7]
  Microbiological Response at TOC: Eradication: 100 (56.2%) n (%)
  Microbiological Response at TOC: Indeterminate: 9 (5.1%) n (%)
  Microbiological Response at TOC: Persistence: 69 (38.8%) n (%)
[1]; [8]
  Microbiological Response at TOC: Eradication: 93 (64.1%) n (%)
  Microbiological Response at TOC: Persistence: 52 (35.9%) n (%)
[1]; [9]
  Microbiological Response at TOC: Eradication: 107 (60.1%) n (%)
  Microbiological Response at TOC: Indeterminate: 9 (5.1%) n (%)
  Microbiological Response at TOC: Persistence: 62 (34.8%) n (%)
[1]; [10]
  Clinical Response at TOC: Eradication: 48 (92.3%) n (%)
  Clinical Response at TOC: Indeterminate: 2 (3.8%) n (%)
  Clinical Response at TOC: Persistence: 2 (3.8%) n (%)
  Overall Response at TOC: Eradication: 39 (75.0%) n (%)
  Overall Response at TOC: Indeterminate: 2 (3.8%) n (%)
  Overall Response at TOC: Persistence: 11 (21.2%) n (%)
  Patient Microbiological response at TOC: Eradication: 40 (76.9%) n (%)
  Patient Microbiological response at TOC: Indeterminate: 2 (3.8%) n (%)
  Patient Microbiological response at TOC: Persistence: 10 (19.2%) n (%)
[1]; [11]
  Clinical Response at TOC: Cure: 163 (91.6%) n (%)
  Clinical Response at TOC: Failure: 12 (6.7%) n (%)
  Clinical Response at TOC: Indeterminate: 3 (1.7%) n (%)
[1]
  overall success rates at TOC: 54.5%
[1]; m-MITT, TOC
  overall success rates using unique pathogen strains typed by PFGE: 57.3%
[2]
  Any AEs: 74 (32.0%) n (%)
  Any TEAEs: 74 (32.0%) n (%)
  Drug-related SAE: 1 (0.4%) n (%)
  Drug-related TEAEs: 32 (13.9%) n (%)
  SAEs: 6 (2.6%) n (%)
  Serious TEAEs leading to study drug discontinuation: 1 (0.4%) n (%)
  TEAEs leading to study drug discontinuation: 6 (2.6%) n (%)
  TEAEs: Mild: 49 (21.2%) n (%)
  TEAEs: Moderate: 38 (16.5%) n (%)
  TEAEs: Severe: 4 (1.7%) n (%)
  SAE related to study drug (1 in each treatment group): renal insufficiency
